According to patent US9969749B2, “Inhibitors of IRAK4 activity” (MERCK SHARP & DOHME CORP., priority 2014, dated 2018):

target: IRAK4 (Homo sapiens (Human), UniProt Q9NWZ3); assay: IRAK4 Kinase Assay (IMAP fluorescence polarization); type: biochemical; settings: 0.5 nM GST tagged IRAK4, 100 μM ATP, 100 nM fluorescent peptide substrate RP7030, 30 minutes at 25° C.
Summary of the method: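 GST-tagged IRAK4 (0.5 nM) phosphorylates 100 nM fluorescent peptide with 100 μM ATP in 10 mM Tris pH 7.2, 1 mM MgCl2, 1 mM DTT, 0.01% Tween 20 for 30 min at 25 °C. Phosphorylation read as IMAP nanoparticle-binding fluorescence polarization after stop reagent.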

Chain of IRAK4 (Q9NWZ3 whole entry): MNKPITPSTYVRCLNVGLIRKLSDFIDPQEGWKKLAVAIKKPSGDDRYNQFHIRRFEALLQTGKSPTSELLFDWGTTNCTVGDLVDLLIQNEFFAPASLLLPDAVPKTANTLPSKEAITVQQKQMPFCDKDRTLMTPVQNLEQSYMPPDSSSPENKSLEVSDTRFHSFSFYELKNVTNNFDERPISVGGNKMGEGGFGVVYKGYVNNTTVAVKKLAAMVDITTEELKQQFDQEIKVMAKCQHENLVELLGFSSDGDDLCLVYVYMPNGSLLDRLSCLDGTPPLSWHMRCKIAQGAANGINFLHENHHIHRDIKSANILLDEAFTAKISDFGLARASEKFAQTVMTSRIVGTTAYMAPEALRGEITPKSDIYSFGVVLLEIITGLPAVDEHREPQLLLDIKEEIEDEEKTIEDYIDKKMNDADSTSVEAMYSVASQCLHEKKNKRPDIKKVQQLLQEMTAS

Question: Which IC50 does the source give for `Nc1cc(-c2ccc3ncnc(N[C@H]4CC[C@H](N5CCOCC5)CC4)c3c2)cnc1Cl` [Example 2-36, 6-(5-amino-6-chloropyridin-3-yl)-N-[trans-4-(morpholin-4-yl)cyclohexyl]quinazolin-4-amine] here?
Answer: The IC50 was 10 nM.

Question: Which IC50 does the source give for `CN(C)[C@H]1CC[C@H](Nc2ncnc3ccc(-c4cncc(O)c4)cc23)CC1` [Example 3-1, 5-(4-(((Trans)-4-(dimethylamino)cyclohexyl)amino)quinazolin-6-yl)pyridin-3-ol] here?
Answer: Its IC50 is 1 nM.

Question: For `CN(C)C(=O)c1cccc(-c2ccc3ncnc(N[C@H]4CC[C@H](N5CCOCC5)CC4)c3c2)n1` [Example 4-1, N,N-Dimethyl-6-(4-(((trans)-4-morpholinocyclohexyl)amino)quinazolin-6-yl)picolinamide], which IC50 is on record?
Answer: The IC50 was 32 nM.

Question: How did the IC50 turn out when `Oc1cc(-c2ccc3ncnc(N[C@H]4CC[C@H](N5CCC(F)(F)CC5)CC4)c3c2)cnc1F` [Example 5-1, 5-(4-{[Trans-4-(4,4-difluoropiperidin-1-yl)cyclohexyl]amino}quinazolin-6-yl)-2-fluoropyridin-3-ol] was run?
Answer: Its IC50 is less than 0.5 nM.

Question: For `COC1CN([C@H]2CC[C@H](Nc3ncnc4ccc(-c5cncc(O)c5)cc34)CC2)C1` [Example 5-2, 5-(4-{[trans-4-(3-methoxyazetidin-1-yl)cyclohexyl]amino}quinazolin-6-yl)pyridin-3-ol], which IC50 is on record?
Answer: The IC50 was 1 nM.

Question: For `CN(C1CC1)[C@H]1CC[C@H](Nc2ncnc3ccc(-c4cncc(O)c4)cc23)CC1` [Example 5-3, 5-[4-({trans-4-[cyclopropyl(methyl)amino]cyclohexyl}amino)quinazolin-6-yl]pyridin-3-ol], which IC50 is on record?
Answer: The IC50 was 1 nM.

Question: For `COCCN[C@H]1CC[C@H](Nc2ncnc3ccc(-c4cncc(O)c4)cc23)CC1` [Example 5-4, 5-[4-({trans-4-[(2-methoxyethyl)amino]cyclohexyl}amino)quinazolin-6-yl]pyridin-3-ol], which IC50 is on record?
Answer: Its IC50 is less than 0.5 nM.

Question: `CN1CCN([C@H]2CC[C@H](Nc3ncnc4ccc(-c5cncc(O)c5)cc34)CC2)CC1` [Example 5-5, 5-(4-{[trans-4-(4-methylpiperazin-1-yl)cyclohexyl]amino}quinazolin-6-yl)pyridin-3-ol] was tested. Which IC50 did it give?
Answer: The IC50 was 1 nM.

Question: How did the IC50 turn out when `C[C@@H]1CN([C@H]2CC[C@H](Nc3ncnc4ccc(-c5cncc(O)c5)cc34)CC2)C[C@H](C)O1` [Example 5-6, 5-[4-({trans-4-[(2R,6S)-2,6-dimethylmorpholin-4-yl]cyclohexyl}amino)quinazolin-6-yl]pyridin-3-ol] was run?
Answer: The IC50 was less than 0.5 nM.

Question: For `CNc1cncc(-c2ccc3ncnc(N[C@H]4CC[C@H](N5CCN(S(C)(=O)=O)CC5)CC4)c3c2)c1` [Example 5-7, 6-[5-(methylamino)pyridin-3-yl]-N-{trans-4-[4-(methylsulfonyl)piperazin-1-yl]cyclohexyl}quinazolin-4-amine], which IC50 is on record?
Answer: Its IC50 is 8 nM.

Question: Which IC50 does the source give for `CNc1cncc(-c2ccc3ncnc(N[C@H]4CC[C@H](N5CCC(F)(F)CC5)CC4)c3c2)c1` [Example 5-8, N-[trans-4-(4,4-difluoropiperidin-1-yl)cyclohexyl]-6-[5-(methylamino)pyridin-3-yl]quinazolin-4-amine] here?
Answer: Its IC50 is 3 nM.

Question: Which IC50 does the source give for `CNc1cncc(-c2ccc3ncnc(N[C@H]4CC[C@H](N5CCC(F)CC5)CC4)c3c2)c1` [Example 5-9, N-[trans-4-(4-fluoropiperidin-1-yl)cyclohexyl]-6-[5-(methylamino)pyridin-3-yl]quinazolin-4-amine] here?
Answer: Its IC50 is 3 nM.

Question: Which IC50 does the source give for `CNc1cncc(-c2ccc3ncnc(N[C@H]4CC[C@H](N5CCC(CN6CCOCC6)CC5)CC4)c3c2)c1` [Example 5-10, 6-[5-(methylamino)pyridin-3-yl]-N-{trans-4-[4-(morpholin-4-ylmethyl)piperidin-1-yl]cyclohexyl}quinazolin-4-amine] here?
Answer: The IC50 was 8 nM.

Question: With `CNc1cncc(-c2ccc3ncnc(N[C@H]4CC[C@H](N5CCC[C@H](CN6CCOCC6)C5)CC4)c3c2)c1` [Example 5-11, 6-[5-(methylamino)pyridin-3-yl]-N-{trans-4-[(3R)-3-(morpholin-4-ylmethyl)piperidin-1-yl]cyclohexyl}quinazolin-4-amine] as the molecule, how does the IC50 read?
Answer: The IC50 was 2 nM.

Question: Which IC50 does the source give for `CNc1cncc(-c2ccc3ncnc(N[C@H]4CC[C@H](N5CCC[C@@H](CN6CCOCC6)C5)CC4)c3c2)c1` [Example 5-12, 6-[5-(methylamino)pyridin-3-yl]-N-{trans-4-[(3S)-3-(morpholin-4-ylmethyl)piperidin-1-yl]cyclohexyl}quinazolin-4-amine] here?
Answer: Its IC50 is 5 nM.

Question: `Oc1cc(-c2ccc3ncnc(N[C@H]4CC[C@H](N5CCC(F)CC5)CC4)c3c2)cnc1F` [Example 5-13, 2-fluoro-5-(4-{[trans-4-(4-fluoropiperidin-1-yl)cyclohexyl]amino}quinazolin-6-yl)pyridin-3-ol] was tested. Which IC50 did it give?
Answer: Its IC50 is less than 0.5 nM.

Question: How did the IC50 turn out when `CS(=O)(=O)N1CCN([C@H]2CC[C@H](Nc3ncnc4ccc(-c5cnc(F)c(O)c5)cc34)CC2)CC1` [Example 5-14, 2-fluoro-5-[4-({trans-4-[4-(methylsulfonyl)piperazin-1-yl]cyclohexyl}amino)quinazolin-6-yl]pyridin-3-ol] was run?
Answer: Its IC50 is 1 nM.

Question: For `Nc1cc(-c2ccc3ncnc(N[C@H]4CC[C@H](N5CCC(F)(F)CC5)CC4)c3c2)cnc1F` [Example 5-15, 6-(5-amino-6-fluoropyridin-3-yl)-N-[trans-4-(4,4-difluoropiperidin-1-yl)cyclohexyl]quinazolin-4-amine], which IC50 is on record?
Answer: Its IC50 is 2 nM.

Question: For `Nc1cc(-c2ccc3ncnc(N[C@H]4CC[C@H](N5CCC(F)CC5)CC4)c3c2)cnc1F` [Example 5-16, 6-(5-amino-6-fluoropyridin-3-yl)-N-[trans-4-(4-fluoropiperidin-1-yl)cyclohexyl]quinazolin-4-amine], which IC50 is on record?
Answer: The IC50 was 1 nM.

Question: Which IC50 does the source give for `Oc1cncc(-c2ccc3ncnc(N[C@H]4CC[C@H](N5CCC(F)(F)CC5)CC4)c3c2)c1` [Example 5-17, 5-(4-{[trans-4-(4,4-difluoropiperidin-1-yl)cyclohexyl]amino}quinazolin-6-yl)pyridin-3-ol] here?
Answer: The IC50 was less than 0.5 nM.

Question: How did the IC50 turn out when `Oc1cncc(-c2ccc3ncnc(N[C@H]4CC[C@H](N5CCC(F)CC5)CC4)c3c2)c1` [Example 5-18, 5-(4-{[trans-4-(4-fluoropiperidin-1-yl)cyclohexyl]amino}quinazolin-6-yl)pyridin-3-ol] was run?
Answer: The IC50 was less than 0.5 nM.

Question: `C[C@@H]1CN([C@H]2CC[C@H](Nc3ncnc4ccc(-c5cnc(F)c(N)c5)cc34)CC2)C[C@H](C)O1` [Example 5-19, 6-(5-amino-6-fluoropyridin-3-yl)-N-{trans-4-[(2R,6S)-2,6-dimethylmorpholin-4-yl]cyclohexyl}quinazolin-4-amine] was tested. Which IC50 did it give?
Answer: Its IC50 is 1 nM.

Question: How did the IC50 turn out when `CS(=O)(=O)N1CCN([C@H]2CC[C@H](Nc3ncnc4ccc(-c5cnc(F)c(N)c5)cc34)CC2)CC1` [Example 5-20, 6-(5-amino-6-fluoropyridin-3-yl)-N-{trans-4-[4-(methylsulfonyl)piperazin-1-yl]cyclohexyl}quinazolin-4-amine] was run?
Answer: The IC50 was 4 nM.

Question: For `Nc1cc(-c2ccc3ncnc(N[C@H]4CC[C@H](N5CCCC(CN6CCOCC6)C5)CC4)c3c2)cnc1F` (stereo partly drawn) [Example 5-21, 6-(5-amino-6-fluoropyridin-3-yl)-N-{trans-4-[3-(morpholin-4-ylmethyl)piperidin-1-yl]cyclohexyl}quinazolin-4-amine], which IC50 is on record?
Answer: The IC50 was 2 nM.

Question: For `Nc1cc(-c2ccc3ncnc(N[C@H]4CC[C@H](N5CCO[C@@H](CF)C5)CC4)c3c2)cnc1F` [Example 5-22, 6-(5-amino-6-fluoropyridin-3-yl)-N-{trans-4-[(2R)-2-(fluoromethyl)morpholin-4-yl]cyclohexyl}quinazolin-4-amine], which IC50 is on record?
Answer: Its IC50 is 4 nM.

Question: With `Nc1cc(-c2ccc3ncnc(N[C@H]4CC[C@H](N5CCO[C@H](CF)C5)CC4)c3c2)cnc1F` [Example 5-23, 6-(5-amino-6-fluoropyridin-3-yl)-N-{trans-4-[(2S)-2-(fluoromethyl)morpholin-4-yl]cyclohexyl}quinazolin-4-amine] as the molecule, how does the IC50 read?
Answer: Its IC50 is 6 nM.

Question: How did the IC50 turn out when `C[C@@H]1CN([C@H]2CC[C@H](Nc3ncnc4ccc(-c5cnc(F)c(N)c5)cc34)CC2)CCO1` [Example 5-24, 6-(5-amino-6-fluoropyridin-3-yl)-N-{trans-4-[(2R)-2-methylmorpholin-4-yl]cyclohexyl}quinazolin-4-amine] was run?
Answer: The IC50 was 1 nM.

Question: How did the IC50 turn out when `C[C@H]1CN([C@H]2CC[C@H](Nc3ncnc4ccc(-c5cnc(F)c(N)c5)cc34)CC2)CCO1` [Example 5-25, 6-(5-amino-6-fluoropyridin-3-yl)-N-{trans-4-[(2S)-2-methylmorpholin-4-yl]cyclohexyl}quinazolin-4-amine] was run?
Answer: Its IC50 is 1 nM.

Question: How did the IC50 turn out when `CNc1cc(-c2ccc3ncnc(N[C@H]4CC[C@H](N5C[C@@H](C)O[C@@H](C)C5)CC4)c3c2)cnc1F` [Example 5-26, N-{trans-4-[(2R,6S)-2,6-dimethylmorpholin-4-yl]cyclohexyl}-6-[6-fluoro-5-(methylamino)pyridin-3-yl]quinazolin-4-amine] was run?
Answer: The IC50 was 1 nM.

Question: Which IC50 does the source give for `CNc1cc(-c2ccc3ncnc(N[C@H]4CC[C@H](N5CCC(F)(F)CC5)CC4)c3c2)cnc1F` [Example 5-27, N-[trans-4-(4,4-difluoropiperidin-1-yl)cyclohexyl]-6-[6-fluoro-5-(methylamino)pyridin-3-yl]quinazolin-4-amine] here?
Answer: Its IC50 is 2 nM.

Question: `CNc1cc(-c2ccc3ncnc(N[C@H]4CC[C@H](N5CCN(C(=O)C6CC6)CC5)CC4)c3c2)cnc1F` [Example 5-28, cyclopropyl {4-[trans-4-({6-[6-fluoro-5-(methylamino)pyridin-3-yl]quinazolin-4-yl}amino)cyclohexyl]piperazin-1-yl}methanone] was tested. Which IC50 did it give?
Answer: Its IC50 is 1 nM.

Question: For `CNc1cc(-c2ccc3ncnc(N[C@H]4CC[C@H](N5CCC(F)CC5)CC4)c3c2)cnc1F` [Example 5-29, 6-[6-fluoro-5-(methylamino)pyridin-3-yl]-N-[trans-4-(4-fluoropiperidin-1-yl)cyclohexyl]quinazolin-4-amine], which IC50 is on record?
Answer: Its IC50 is 2 nM.

Question: `CNc1cc(-c2ccc3ncnc(N[C@H]4CC[C@H](N5CCO[C@H](C)C5)CC4)c3c2)cnc1F` [Example 5-30, 6-[6-fluoro-5-(methylamino)pyridin-3-yl]-N-{trans-4-[(2R)-2-methylmorpholin-4-yl]cyclohexyl}quinazolin-4-amine] was tested. Which IC50 did it give?
Answer: Its IC50 is 1 nM.
